# Laboratory results published in patent US10350272B2, “Calcitonin analogues for treating diseases and disorders” (KeyBioscience AG, priority 2015, dated 2019).
# Tests used:
# Assay type in all cases: in vivo, rat
# [1] = tested on: liver sections from HFD-fed rats; assay: Oil-Red-O staining of frozen liver sections; conditions: HFD rats, 2.5 μg/kg daily
# Method: At termination of the study of Example 2 the rat livers were embedded using snap freezing in OCT, and then sectioned using a cryomicrotome. Sections were prepared from four groups, KBP-042 in HFD rats, KBP-089 in HFD rats, control HFD rats, and a lean rat comparison.
# The sections were stained using Oil-Red-O staining. […] The lipid accumulation in pair-fed KBP-089 liver exceeded KBP-089 treated rats with 66.5% (p<0.001) and was not significant different from vehicle (0.6711). Statistical test performed was one-way ANOVA with Dunnet's post test for multiple comparisons. **p<0.01, ***p<0.001.
# obese rats = assay: 16-day treatment study in obese rats (bodyweight, food intake, fat depots, liver lipid analysis); conditions: 16 days; for liver arachidonic acid / liver free fatty acids / liver triacylglycerols: extracted liver tissue, 7.5 μg/kg/day
# Method: Two studies were conducted, and in both studies the obese rats used were generated as follows:
# To obtain obese rats, male Sprague-Dawley rats aged 12 weeks were placed on a diet consisting of regular rodent chow and a 60 kcal % high-fat diet (no. D12495; Research Diets) for a total of 12 wk. Following the 12 weeks on high fat diet the rats were randomized into treatment groups based on weight.
# The initial study was a 16-day treatment study, in which three groups were studied: Lean (same age but no high fat diet), vehicle (obese control group), and KBP-042 at 7.5 μg/kg/day. Throughout the experiment the bodyweight and food intake were monitored, and at termination liver and fat depots were collected for weighing and potential analysis of triglyceride, free fatty acids and arachidonic acid content.
# As the quantification procedure contains several steps an internal standard was added to each sample extraction, which enables the results to be normalized and correcting for any loss. The internal standard was prepared as a solution containing 3.66 mg/mL C19:0 TAG (Sigma-Aldrich, product number: T4632), 2.73 mg/mL C17:0 Phospholipid (PL), 0.4 mg/mL C19:0 FFA (Sigma-Aldrich, product number: N-8263), 0.096 mg/mL C15:0 Diacylglycerol (DAG), 0.06 mg/mL d31-tagged Ceramide, 0.03 mg/mL d7-tagged Sphingosine, 1.036 mg/mL Sitostanol, 0.04 mg/mL d31-tagged Sphingomyelin and 1.596 mg/mL C15:0 Cholesterolester in Chloroform:Methanol 2:1 (v/v).
# The method is based on Folch et al. At the time of extraction the samples were portioned at 500 mg individually and transferred to glass tubes, followed by the addition of 10 mL 100 μg/mL butylated hydroxytoluene (BHT) in chloroform:methanol 2:1 (v:v), and placed on ice. Each sample was added 150 μL of the internal standard solution. Homogenization was performed using a rotor-stator submersion blender (IKA Ultra-Turrax T25) with the sample tubes submerged in ice-water. The samples were each homogenized for 3×10 seconds with 50 second intervals, where after the homogenate is transferred to 35 mL screw-cap centrifuge tubes. The aggregate was cleaned in 5 mL chloroform:methanol 2:1 in the original glass tube, which was then transferred quantitatively to the homogenate. The homogenate was added 3 mL (0.24 times the total homogenate volume) of 0.73% (w/v) NaCl in MiliQ H2O and mixed, followed by centrifugation at 2800·g for 5 minutes at 4° C., to create a 2-phase system. The lower phase was transferred to a clean 12.5 mL centrifugation tube. The homogenate (the upper phase) was then added 3 mL chloroform:methanol 85:15 and mixed, followed by another centrifugation step. The new lower phase was then isolated and added to the first extract and dried down under nitrogen in a 40° C. water bath, followed by resolubilization in 300 μL chloroform:methanol 2:1. At this point the lipid extracts can be stored at −20° C.
# The lipid extracts were fractionated on amino-propyl columns (Phenomenex Strata NH2, product number: 8B-S009-HBJ). The columns were pre-washed with 2×2 mL chloroform:methanol 23:1 (v:v) and left to dry. During fractionation the columns were not allowed to dry. The columns were primed with 2×1 mL hexane followed by application of the lipid extracts. Fraction 1 containing cholesterol esters was eluted with 3 mL Hexane into a clean tube. Fraction 2 containing TAG was eluted using 3 mL hexane:chloroform:ethylacetate 100:5:5 (v:v:v) into a clean tube. Fraction 3 containing DAG, Cholesterol and Ceramide was eluted using 3×2 mL chloroform:methanol 23:1 (v:v) into a new glass. Fraction 4 containing FFA was eluted using 5 mL 2% acetic acid in diethyl ether into a new glass. Fraction 5 containing PL was eluted using 4 mL methanol into a new glass. Fractions 1 and 2 were dried down under nitrogen at 40° C. and re-dissolved in 300 μL chloroform:methanol 95:5 and stored at −20° C. […]
# HFD rats = assay: Oral glucose tolerance test (OGTT)
# Excerpt: Animals were challenged with an oral glucose bolus (2 g/kg) at time=0, and dosed with either KBP-042 or saline at t=−30. FIGS. 12A, 12B and 12C show blood glucose levels during acute OGTT, OGTT after 3 weeks, and OGTT after 7 weeks respectively. FIGS. 12D, 12E and 12F show the area under the curve for acute OGTT, OGTT after 3 weeks, and OGTT after 7 weeks respectively. FIGS. 12G, 12H and 12I show insulin levels during acute OGTT, OGTT after 3 weeks, and OGTT after 7 weeks respectively. FIGS. 12J, 12K and 12L show insulin levels during acute OGTT, OGTT after 3 weeks, and OGTT after 7 weeks respectively expressed as area under the curve. n=10 for all groups except vehicle (n=12). Statistical analysis between groups were performed as a One-way ANOVA followed by Tukey's post-hoc test with the following annotations: *P<0.05, **P<0.01, ***P<0.001 vs. HFD-Vehicle. ††P<0.01, †††P<0.001 vs. Pair-fed 5 μg/kg. ‡‡P<0.01, ‡‡‡P<0.001 vs. Pair-fed 10 μg/kg, Data are expressed as mean±SEM.
# [2] = KBP-042 7.5 μg/kg/day, vs saline
substance,measurement,setting,value
"AcCSNLSTCVLGKLSQELHKLQTYPRTDVGANAP-NH2 (Ac-CSNLSTCVLGKLSQELHKLQTYPRTDVGANAP-NH2; not fully specified (bridges); cysteine pairing not given here) [KBP-042, calcitonin mimetic with Cys1-Cys7 disulphide bridge]",decrease of HFD-induced lipid accumulation in liver compared to vehicle (Oil-Red-O),[1],78.3%
same,fat depots (epididymal visceral fat),"obese rats; KBP-042 7.5 μg/kg/day, at termination",fats depots were reduced
same,body weight,obese rats; [2],marked weight reduction
same,food intake,obese rats; [2],pronounced reduction in food intake early
same,liver arachidonic acid,obese rats,reduced the levels
same,liver free fatty acids,obese rats,reduced
same,liver triacylglycerols,obese rats,reduced triacylglycerols
same,liver arachidonic acid,obese rats; listed as KBP-peptide,improvement
same,liver free fatty acids,obese rats; listed as KBP-peptide,improvement
same,liver triacylglycerols,obese rats; listed as KBP-peptide,improvement
same,blood glucose,"HFD rats; 30 minutes after subcutaneous administration (t=0), acute",hyperglycemic effect
same,glucose tAUC,"HFD rats; OGTT after 3 weeks, 2.5 μg/kg, 5 μg/kg and 10 μg/kg",significantly lowered
same,glucose tolerance (tAUC),"HFD rats; OGTT at week 7, 5 μg/kg and 10 μg/kg",improved glucose tolerance
same,glucose total area under the curve (tAUC),"HFD rats; acute OGTT, 10 μg/kg",significantly increased
same,glucose tolerance in OGTT,"HFD rats; acute dose, 10 μg/kg, compared to HFD-Vehicle",slightly impaired glucose tolerance
same,insulin levels during OGTT,"HFD rats; acute, first 60 minutes after glucose administration",reduced
same,insulin levels during OGTT,"HFD rats; after 3 weeks, all treatment groups except 0.625 μg/kg",lowered
same,insulin levels during OGTT,"HFD rats; week 7, three highest dose groups, first 60 minutes after glucose administration",drastically reduced
